Source: ChEMBL document CHEMBL1208756, “LuxR-dependent quorum sensing: computer aided discovery of new inhibitors structurally unrelated to N-acylhomoserine lactones” (Bioorg Med Chem Lett, 2010)
Calls of active or inactive are those of the source. No cut-off for these calls is given here.

Tests used:
[1] = target: T1, Transcriptional activator protein LuxR (Aliivibrio fischeri, UniProt P12746); test: Inhibition of LuxR-dependent quorum sensing in Vibrio fischeri assessed as reduction of 3-oxo-C6-HSL-induced bioluminescence intensity
T1 sequence (P12746 whole entry): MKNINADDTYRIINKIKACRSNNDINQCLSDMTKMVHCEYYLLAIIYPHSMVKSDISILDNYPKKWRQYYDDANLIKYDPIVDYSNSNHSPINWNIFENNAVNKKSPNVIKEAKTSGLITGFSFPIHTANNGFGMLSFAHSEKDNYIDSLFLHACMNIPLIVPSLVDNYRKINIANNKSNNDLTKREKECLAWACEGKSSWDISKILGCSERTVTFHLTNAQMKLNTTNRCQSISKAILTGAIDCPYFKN

[2] = target: T2, Transcriptional activator protein LuxR (Aliivibrio fischeri) (UniProt P12746); test: Induction of LuxR-dependent quorum sensing in Vibrio fischeri assessed as induction of bioluminescence intensity up to 200 uM
T2 sequence (whole entry): T1 sequence (P12746 whole entry)

[3] = target: T2, Transcriptional activator protein LuxR (Aliivibrio fischeri); test: Inhibition of LuxR-dependent quorum sensing in Vibrio fischeri assessed as reduction of 3-oxo-C6-HSL-induced bioluminescence intensity at 40 uM
[4] = target: T2, Transcriptional activator protein LuxR (Aliivibrio fischeri); test: Inhibition of LuxR-dependent quorum sensing in Vibrio fischeri assessed as reduction of 3-oxo-C6-HSL-induced bioluminescence intensity at 20 uM

| Structure (SMILES) | IC50 [1] | Activity [2] | inhibition [3] | inhibition [4] |
| --- | --- | --- | --- | --- |
| CC(C)(C)c1ccc(C(O)CCCN2CCC(C(O)(c3ccccc3)c3ccccc3)CC2)cc1 (centres undefined) [TERFENADINE] | 92 µM | inactive | – | – |
| Clc1ccc(C(c2ccc(Cl)cc2)n2cc[n+](CC(OCc3ccc(Cl)cc3Cl)c3ccc(Cl)cc3Cl)c2)cc1 (centres undefined) [CALMIDAZOLIUM CHLORIDE] | 7 µM | – | – | – |
| CN1CCC(=C2c3ccccc3Sc3ccccc32)CC1 [PIMETHIXENE] | 56 µM | inactive | – | – |
| CC/C(=C(\c1ccccc1)c1ccc(OCCN(C)C)cc1)c1ccccc1 [TAMOXIFEN] | 40 µM | inactive | 53% | 73.6% |
| Clc1ccc(C(c2ccc(Cl)cc2)[n+]2ccn(CC(OCc3ccc(Cl)cc3Cl)c3ccc(Cl)cc3Cl)c2)cc1 (centres undefined) | – | inactive | – | – |
| CC(NCCC(c1ccccc1)c1ccccc1)c1ccccc1 (centres undefined) [FENDILINE] | 91 µM | inactive | – | – |
| CN[C@H]1CC[C@@H](c2ccc(Cl)c(Cl)c2)c2ccccc21 [SERTRALINE] | 27 µM | inactive | – | – |
